According to patent US20030013099A1, “Genes regulated by DNA methylation in colon tumors” (priority 2001, published 2003):

Experiments:
[1] = test system: HCT116 cells; assay: microarray differential expression, HCT116 cells treated with 500 nM Aza; type: cell-based, human; details: vs untreated, log base 2, negative = upregulation
Experimental: HT29 cells were derived from a Grade II adenocarcinoma of the colon obtained from a person. HCT116 cells are a subpopulation of malignant cells isolated from a primary cell culture of a single human colonic carcinoma (Brattain et al. (1981) Cancer Res 41:1751-6). HMEC cells are a primary human epithelial cell line derived from the breast tissue of a normal donor. HT29 and HCT116 colorectal carcinoma cells (American Type Culture Collection, Manassas Va.) were cultured in McCoy's medium supplemented with 10% fetal bovine serum (Invitrogen) at 37° C. and 5% CO2. Treated cells were exposed to 500 nM 5-aza-2-deoxycytidine (Aza; Sigma-Aldrich) 24 hours after passage in complete culture medium. Control cultures were treated in parallel with phosphate buffered saline vehicle. After twenty-four hours, culture medium was replaced with drug-free medium. Control and Aza-treated cells were subcultured at equal densities at 1 and 5 days after the initial treatment, and proliferation was measured at the subsequent time point using a Coulter counter (Beckman Coulter, Fullerton Calif.). Cells were harvested 5 days after the initial treatment.
Cells were harvested and lysed in 1 ml of TRIZOL reagent (5×10^6 cells/ml; Invitrogen). The lysates were vortexed thoroughly and incubated at room temperature for 2-3 minutes and extracted with 0.5 ml chloroform. The extract was mixed, incubated at room temperature for 5 minutes, and centrifuged at 16,000× g for 15 minutes at 4° C. The aqueous layer was collected, and an equal volume of isopropanol was added. Samples were mixed, incubated at room temperature for 10 minutes, and centrifuged at 16,000× g for 20 minutes at 4° C. The supernatant was removed, and the RNA pellet was washed with 1 ml of 70% ethanol, centrifuged at 16,000× g at 4° C., and resuspended in RNAse-free water. The concentration of the RNA was determined by measuring the optical density at 260 nm.
Poly(A) RNA was prepared using an OLIGOTEX mRNA kit (Qiagen) with the following modifications: OLIGOTEX beads were washed in tubes instead of on spin columns, resuspended in elution buffer, and then loaded onto spin columns to recover mRNA. To obtain maximum yield, the mRNA was eluted twice.
Each poly(A) RNA sample was reverse transcribed using MMLV reverse-transcriptase, 0.05 pg/μl oligo-d(T) primer (21mer), 1× first strand buffer, 0.03 units/ul RNAse inhibitor, 500 uM dAT?, 500 uM dGTP, 500 uM dTTP, 40 uM dCTP, and 40 uM either dCTP-Cy3 or dCTP-Cy5 (APB). The reverse transcription reaction was performed in a […] volume containing 200 ng poly(A) RNA using the GEMBRIGHT kit (Incyte Genomics). Specific control poly(A) RNAs (YCFRO6, YCFR45, YCFR67, YCFR85, YCFR43, YCFR22, YCFR23, YCFR25, YCFR44, YCFR26) were synthesized by in vitro transcription from non-coding yeast genomic DNA (W. Lei, unpublished). As quantitative controls, control mRNAs (YCFRO6, YCFR45, YCFR67, and YCFR85) at 0.002 ng, 0.02 ng, 0.2 ng, and 2 ng were diluted into reverse transcription reaction at ratios of 1:100,000, 1:10,000, 1:1000, 1:100 (w/w) to sample mRNA, respectively. To sample differential expression patterns, control mRNAs (YCFR43, YCFR22, YCFR23, YCFR25, YCFR44, YCFR26) were diluted into reverse transcription reaction at ratios of 1:3, 3:1, 1:10, 10:1, 1:25, 25:1 (w/w) to sample mRNA. Reactions were incubated at 37° C. for 2 hours, treated with […] of 0.5M sodium hydroxide, and incubated for 20 minutes at 85° C. to the stop the reaction and degrade the RNA.
cDNAs were purified using two successive CHROMA SPIN 30 gel filtration spin columns (Clontech). Cy3- and Cy5-labeled reaction samples were combined as described below and ethanol precipitated using […] of 100% ethanol. The cDNAs were then dried to completion using a SpeedVAC system (Savant Instruments, Holbrook N.Y.) and resuspended in 14 μl 5× SSC, 0.2% SDS. […]

[2] = test system: HT-29 cells; details: cultured HT-29 cells, microarray experiments and other methods; cited from earlier work
[3] = test system: MIN mouse; details: Aza treatment in combination with a genetic reduction in DNA methyltransferase I activity; cited from earlier work

## Nc1ncn([C@H]2C[C@H](O)[C@@H](CO)O2)c(=O)n1 [Aza, 5-aza-2-deoxycytidine]
[1]; SEQ ID NO:1 hypothetical protein
  differential expression, Clone ID 2416222, HCT116 t/Aza (5d): −1.72
[1]; SEQ ID NO:2 Incyte Unique
  differential expression, Clone ID 4103545, HCT116 t/Aza (5d): −1.35
[1]; SEQ ID NO:3 interferon-inducible protein
  differential expression, Clone ID 322569, HCT116 t/Aza (5d): −1.17
[1]; SEQ ID NO:5 chromosome 6p21.3, HLA Class I region
  differential expression, Clone ID 5322134, HCT116 t/Aza (5d): −1.72
[1]; SEQ ID NO:6 unnamed protein product
  differential expression, Clone ID 1698458, HCT116 t/Aza (5d): −1.32
[1]; SEQ ID NO:7 KIAA1046 protein
  differential expression, Clone ID 1871523, HCT116 t/Aza (5d): −0.85
[1]; SEQ ID NO:8 putative tumor antigen
  differential expression, Clone ID 6024084, HCT116 t/Aza (5d): −2.66
[1]; SEQ ID NO:9 Incyte Unique
  differential expression, Clone ID 3810006, HCT116 t/Aza (5d): −0.85
[1]; SEQ ID NO:10 Incyte Unique
  differential expression, Clone ID 4508879, HCT116 t/Aza (5d): −0.89
[1]; SEQ ID NO:11 U 6 RNA
  differential expression, Clone ID 4225379, HCT116 t/Aza (5d): −0.89
[1]; SEQ ID NO:12 cDNA clone ZD16H10
  differential expression, Clone ID 3463713, HCT116 t/Aza (5d): −1.46
[1]; SEQ ID NO:13, 14 T-cell receptor gamma
  differential expression, Clone ID 2998017, HCT116 t/Aza (5d): −1.23
[1]; SEQ ID NO:15 pTR5 repetitive sequence
  differential expression, Clone ID 4318273, HCT116 t/Aza (5d): −1.07
[1]; SEQ ID NO:16 Hep27 protein
  differential expression, Clone ID 1649414, HCT116 t/Aza (5d): −1.00
[1]; SEQ ID NO:18 cDNA FLJ20222
  differential expression, Clone ID 1684742, HCT116 t/Aza (5d): −0.89
[1]; SEQ ID NO:19 KIAA0412
  differential expression, Clone ID 2825816, HCT116 t/Aza (5d): −0.89
[1]; SEQ ID NO:21 Incyte Unique
  differential expression, Clone ID 2440943, HCT116 t/Aza (5d): −1.00
[1]; SEQ ID NO:22 PDGF-B
  differential expression, Clone ID 1294339, HCT116 t/Aza (5d): −0.89
[1]; SEQ ID NO:23 cDNA FLJ10570
  differential expression, Clone ID 5104741, HCT116 t/Aza (5d): −1.23
[1]; SEQ ID NO:24 pTR7 repetitive sequence
  differential expression, Clone ID 1855389, HCT116 t/Aza (5d): −1.51
[1]; SEQ ID NO:25 chromosome 21 segment HS21C049
  differential expression, Clone ID 5207613, HCT116 t/Aza (5d): −1.67
[1]; SEQ ID NO:26 hypothetical protein
  differential expression, Clone ID 3207902, HCT116 t/Aza (5d): −0.89
[1]; SEQ ID NO:27 ZNFpT17
  differential expression, Clone ID 4999769, HCT116 t/Aza (5d): −1.09
[1]; SEQ ID NO:28 transketolase
  differential expression, Clone ID 408886, HCT116 t/Aza (5d): −2.32
[1]; SEQ ID NO:30 GAGE-8
  differential expression, Clone ID 4764233, HCT116 t/Aza (5d): −1.79
[1]; SEQ ID NO:31 GAGE-7B
  differential expression, Clone ID 2511379, HCT116 t/Aza (5d): −1.34
[1]; SEQ ID NO:33 cDNA clone YU62C03
  differential expression, Clone ID 2471817, HCT116 t/Aza (5d): −0.89
[1]; SEQ ID NO:34 MAGE-11 antigen
  differential expression, Clone ID 3333736, HCT116 t/Aza (5d): −1.38
[1]; SEQ ID NO:35 GAGE-8
  differential expression, Clone ID 1304365, HCT116 t/Aza (5d): −1.78
[1]; SEQ ID NO:37, 38 MAGE-4b antigen
  differential expression, Clone ID 2657056, HCT116 t/Aza (5d): −1.58
[1]; SEQ ID NO:39 MAGE-9 antigen
  differential expression, Clone ID 2507719, HCT116 t/Aza (5d): −1.70
[1]; SEQ ID NO:41 MAGE-1
  differential expression, Clone ID 4688, HCT116 t/Aza (5d): −1.14
[1]; SEQ ID NO:42 HM74
  differential expression, Clone ID 2068708, HCT116 t/Aza (5d): −0.46
[1]; SEQ ID NO:43 1-8D
  differential expression, Clone ID 23770, HCT116 t/Aza (5d): −0.72
[1]; SEQ ID NO:45 Incyte Unique
  differential expression, Clone ID 1616783, HCT116 t/Aza (5d): −0.80
[1]; SEQ ID NO:46 cDNA FLJ20120
  differential expression, Clone ID 820942, HCT116 t/Aza (5d): −0.26
[1]; SEQ ID NO:47 Incyte Unique
  differential expression, Clone ID 891322, HCT116 t/Aza (5d): −0.58
[1]; SEQ ID NO:48 U5 A RNA
  differential expression, Clone ID 2755836, HCT116 t/Aza (5d): −0.58
[1]; SEQ ID NO:49 phospholipid scramblase 1
  differential expression, Clone ID 1227521, HCT116 t/Aza (5d): −0.58
[1]; SEQ ID NO:50 retinoid inducible gene 1
  differential expression, Clone ID 2200842, HCT116 t/Aza (5d): 0.00
[1]; SEQ ID NO:51 interferon induced
  differential expression, Clone ID 2238363, HCT116 t/Aza (5d): −0.24
[1]; SEQ ID NO:53 TRAIL
  differential expression, Clone ID 1495382, HCT116 t/Aza (5d): −0.26
[1]; SEQ ID NO:55 rhoB
  differential expression, Clone ID 1998269, HCT116 t/Aza (5d): −0.63
[1]; SEQ ID NO:56 hepatitis C-associated microtubular aggregate
  differential expression, Clone ID 1919287, HCT116 t/Aza (5d): 0.00
[1]; SEQ ID NO:57 HE4 protein
  differential expression, Clone ID 2637446, HCT116 t/Aza (5d): −0.29
[1]; SEQ ID NO:58 Similar to keratin 7
  differential expression, Clone ID 1962141, HCT116 t/Aza (5d): −0.92
[1]; SEQ ID NO:60 Incyte Unique
  differential expression, Clone ID 4933404, HCT116 t/Aza (5d): −2.08
[1]; SEQ ID NO:61 Keratin 8
  differential expression, Clone ID 2150288, HCT116 t/Aza (5d): −0.92
  differential expression, Clone ID 2697455, HCT116 t/Aza (5d): −1.14
[2]
  expression of genes related to interferon (IFN) signaling: leads to specific expression of several genes related to interferon (IFN) signaling
[3]
  polyp formation: reduced polyp formation
